# Organism: Rattus norvegicus
# Test: DrugMatrix - Regimen: Daily Repeat
# Type: toxicity, organism-based, Sprague-Dawley
# Parameters: regimen Daily Repeat, gender Male, age 6-8 weeks
# Conditions: in vivo, po, route oral GAVAGE, vehicle .5 % CMC; for ABSOLUTE BASOPHIL / ABSOLUTE EOSINOPHIL / ABSOLUTE LYMPHOCYTE / ABSOLUTE MONOCYTE / ABSOLUTE SEGMENTED NEUTROPHIL / BASOPHIL / EOSINOPHIL / ERYTHROCYTE COUNT / HEMATOCRIT / HEMOGLOBIN / LEUKOCYTE COUNT / LYMPHOCYTE / MEAN CORPUSCULAR HEMOGLOBIN / MEAN CORPUSCULAR HEMOGLOBIN CONCENTRATION / MEAN CORPUSCULAR VOLUME / MONOCYTE / NEUTROPHIL / NUCLEATED RED BLOOD CELLS / PLATELET COUNT: tissue Blood; for ALANINE AMINOTRANSFERASE / ALBUMIN / ALKALINE PHOSPHATASE / ASPARTATE AMINOTRANSFERASE / BLOOD UREA NITROGEN / CARBON DIOXIDE / CHLORIDE / CHOLESTEROL / CREATINE PHOSPHOKINASE / CREATININE / GLUCOSE / LACTATE DEHYDROGENASE / LIPASE / PHOSPHORUS / POTASSIUM / SODIUM / TOTAL BILIRUBIN / TOTAL PROTEIN / URIC ACID: tissue Plasma
# [1] = 30 mg/kg, 72 h, dose level Low, time 3 day
# [2] = 30 mg/kg, 120 h, dose level Low, time 5 day
# [3] = 1200 mg/kg, 72 h, dose level High, time 3 day
# [4] = 1200 mg/kg, 120 h, dose level High, time 5 day
smiles,measurement,setting,value
CN(Cc1cc(Br)cc(Br)c1N)C1CCCCC1 [BROMHEXINE],ABSOLUTE BASOPHIL,[1],0 CELLS/uL
same,ABSOLUTE EOSINOPHIL,[1],52.67 CELLS/uL
same,ABSOLUTE LYMPHOCYTE,[1],13749.67 CELLS/uL
same,ABSOLUTE MONOCYTE,[1],46.33 CELLS/uL
same,ABSOLUTE SEGMENTED NEUTROPHIL,[1],484.67 CELLS/uL
same,BASOPHIL,[1],0%
same,EOSINOPHIL,[1],0.33%
same,ERYTHROCYTE COUNT,[1],5.57 x10E6/uL
same,HEMATOCRIT,[1],34.67%
same,HEMOGLOBIN,[1],13.63 G/DL
same,LEUKOCYTE COUNT,[1],14.33 x10E3/uL
same,LYMPHOCYTE,[1],96%
same,MEAN CORPUSCULAR HEMOGLOBIN,[1],24.5 pg
same,MEAN CORPUSCULAR HEMOGLOBIN CONCENTRATION,[1],39.37 G/DL
same,MEAN CORPUSCULAR VOLUME,[1],62.23 fL
same,MONOCYTE,[1],0.33%
same,NEUTROPHIL,[1],3.33%
same,NUCLEATED RED BLOOD CELLS,[1],0.33 /100WBC
same,PLATELET COUNT,[1],1277.67 x10E3/uL
same,ALANINE AMINOTRANSFERASE,[1],49 u/L
same,ALBUMIN,[1],4.13 G/DL
same,ALKALINE PHOSPHATASE,[1],406.33 u/L
same,ASPARTATE AMINOTRANSFERASE,[1],85 u/L
same,BLOOD UREA NITROGEN,[1],15 mg/dL
same,CARBON DIOXIDE,[1],23 mmol/L
same,CHLORIDE,[1],103.67 MEQ/L
same,CHOLESTEROL,[1],65.67 mg/dL
same,CREATINE PHOSPHOKINASE,[1],317.67 u/L
same,CREATININE,[1],0.18 mg/dL
same,GLUCOSE,[1],158 mg/dL
same,LACTATE DEHYDROGENASE,[1],370.33 u/L
same,LIPASE,[1],9 u/L
same,PHOSPHORUS,[1],12.77 mg/dL
same,POTASSIUM,[1],6.95 MEQ/L
same,SODIUM,[1],145.43 MEQ/L
same,TOTAL BILIRUBIN,[1],0.2 mg/dL
same,TOTAL PROTEIN,[1],5.77 G/DL
same,URIC ACID,[1],1.67 mg/dL
same,ABSOLUTE BASOPHIL,[2],0 CELLS/uL
same,ABSOLUTE EOSINOPHIL,[2],128.67 CELLS/uL
same,ABSOLUTE LYMPHOCYTE,[2],16146.33 CELLS/uL
same,ABSOLUTE MONOCYTE,[2],429 CELLS/uL
same,ABSOLUTE SEGMENTED NEUTROPHIL,[2],1529.33 CELLS/uL
same,BASOPHIL,[2],0%
same,EOSINOPHIL,[2],0.67%
same,ERYTHROCYTE COUNT,[2],5.35 x10E6/uL
same,HEMATOCRIT,[2],33.4%
same,HEMOGLOBIN,[2],13.33 G/DL
same,LEUKOCYTE COUNT,[2],18.23 x10E3/uL
same,LYMPHOCYTE,[2],88.67%
same,MEAN CORPUSCULAR HEMOGLOBIN,[2],24.97 pg
same,MEAN CORPUSCULAR HEMOGLOBIN CONCENTRATION,[2],39.9 G/DL
same,MEAN CORPUSCULAR VOLUME,[2],62.5 fL
same,MONOCYTE,[2],2.33%
same,NEUTROPHIL,[2],8.33%
same,NUCLEATED RED BLOOD CELLS,[2],0 /100WBC
same,PLATELET COUNT,[2],1294.67 x10E3/uL
same,ALANINE AMINOTRANSFERASE,[2],51.33 u/L
same,ALBUMIN,[2],4.27 G/DL
same,ALKALINE PHOSPHATASE,[2],334 u/L
same,ASPARTATE AMINOTRANSFERASE,[2],80.67 u/L
same,BLOOD UREA NITROGEN,[2],15.67 mg/dL
same,CARBON DIOXIDE,[2],24.67 mmol/L
same,CHLORIDE,[2],103.67 MEQ/L
same,CHOLESTEROL,[2],75.33 mg/dL
same,CREATINE PHOSPHOKINASE,[2],235.67 u/L
same,CREATININE,[2],0.15 mg/dL
same,GLUCOSE,[2],144.33 mg/dL
same,LACTATE DEHYDROGENASE,[2],206.67 u/L
same,LIPASE,[2],8 u/L
same,PHOSPHORUS,[2],12.53 mg/dL
same,POTASSIUM,[2],6.56 MEQ/L
same,SODIUM,[2],145.97 MEQ/L
same,TOTAL BILIRUBIN,[2],0.2 mg/dL
same,TOTAL PROTEIN,[2],5.87 G/DL
same,URIC ACID,[2],1.43 mg/dL
same,ABSOLUTE BASOPHIL,[3],0 CELLS/uL
same,ABSOLUTE EOSINOPHIL,[3],0 CELLS/uL
same,ABSOLUTE LYMPHOCYTE,[3],11402.67 CELLS/uL
same,ABSOLUTE MONOCYTE,[3],42 CELLS/uL
same,ABSOLUTE SEGMENTED NEUTROPHIL,[3],922 CELLS/uL
same,BASOPHIL,[3],0%
same,EOSINOPHIL,[3],0%
same,ERYTHROCYTE COUNT,[3],5.83 x10E6/uL
same,HEMATOCRIT,[3],36.2%
same,HEMOGLOBIN,[3],14.53 G/DL
same,LEUKOCYTE COUNT,[3],12.37 x10E3/uL
same,LYMPHOCYTE,[3],92.33%
same,MEAN CORPUSCULAR HEMOGLOBIN,[3],24.93 pg
same,MEAN CORPUSCULAR HEMOGLOBIN CONCENTRATION,[3],40.13 G/DL
same,MEAN CORPUSCULAR VOLUME,[3],62.07 fL
same,MONOCYTE,[3],0.33%
same,NEUTROPHIL,[3],7.33%
same,NUCLEATED RED BLOOD CELLS,[3],0 /100WBC
same,PLATELET COUNT,[3],1700.33 x10E3/uL
same,ALANINE AMINOTRANSFERASE,[3],65.67 u/L
same,ALBUMIN,[3],4.33 G/DL
same,ALKALINE PHOSPHATASE,[3],494.33 u/L
same,ASPARTATE AMINOTRANSFERASE,[3],82.67 u/L
same,BLOOD UREA NITROGEN,[3],12 mg/dL
same,CARBON DIOXIDE,[3],21.33 mmol/L
same,CHLORIDE,[3],102.5 MEQ/L
same,CHOLESTEROL,[3],83.67 mg/dL
same,CREATINE PHOSPHOKINASE,[3],249.33 u/L
same,CREATININE,[3],0.17 mg/dL
same,GLUCOSE,[3],162.67 mg/dL
same,LACTATE DEHYDROGENASE,[3],125.67 u/L
same,LIPASE,[3],13 u/L
same,PHOSPHORUS,[3],12.63 mg/dL
same,POTASSIUM,[3],5.48 MEQ/L
same,SODIUM,[3],143.2 MEQ/L
same,TOTAL BILIRUBIN,[3],0.17 mg/dL
same,TOTAL PROTEIN,[3],5.8 G/DL
same,URIC ACID,[3],1.93 mg/dL
same,ABSOLUTE BASOPHIL,[4],0 CELLS/uL
same,ABSOLUTE EOSINOPHIL,[4],0 CELLS/uL
same,ABSOLUTE LYMPHOCYTE,[4],22503 CELLS/uL
same,ABSOLUTE MONOCYTE,[4],323.33 CELLS/uL
same,ABSOLUTE SEGMENTED NEUTROPHIL,[4],1973.67 CELLS/uL
same,BASOPHIL,[4],0%
same,EOSINOPHIL,[4],0%
same,ERYTHROCYTE COUNT,[4],6.56 x10E6/uL
same,HEMATOCRIT,[4],39.57%
same,HEMOGLOBIN,[4],16.23 G/DL
same,LEUKOCYTE COUNT,[4],24.8 x10E3/uL
same,LYMPHOCYTE,[4],90%
same,MEAN CORPUSCULAR HEMOGLOBIN,[4],24.77 pg
same,MEAN CORPUSCULAR HEMOGLOBIN CONCENTRATION,[4],41.07 G/DL
same,MEAN CORPUSCULAR VOLUME,[4],60.37 fL
same,MONOCYTE,[4],1.33%
same,NEUTROPHIL,[4],8.67%
same,NUCLEATED RED BLOOD CELLS,[4],0 /100WBC
same,PLATELET COUNT,[4],1311.67 x10E3/uL
same,ALANINE AMINOTRANSFERASE,[4],66.67 u/L
same,ALBUMIN,[4],4.5 G/DL
same,ALKALINE PHOSPHATASE,[4],440.33 u/L
same,ASPARTATE AMINOTRANSFERASE,[4],86 u/L
same,BLOOD UREA NITROGEN,[4],19.67 mg/dL
same,CARBON DIOXIDE,[4],25 mmol/L
same,CHLORIDE,[4],102 MEQ/L
same,CHOLESTEROL,[4],90.67 mg/dL
same,CREATINE PHOSPHOKINASE,[4],343.67 u/L
same,CREATININE,[4],0.2 mg/dL
same,GLUCOSE,[4],132 mg/dL
same,LACTATE DEHYDROGENASE,[4],171.33 u/L
same,LIPASE,[4],9.33 u/L
same,PHOSPHORUS,[4],11.03 mg/dL
same,POTASSIUM,[4],6.65 MEQ/L
same,SODIUM,[4],144.3 MEQ/L
same,TOTAL BILIRUBIN,[4],0.17 mg/dL
same,TOTAL PROTEIN,[4],6.17 G/DL
same,URIC ACID,[4],1.33 mg/dL
